One experiment addresses CDK2/Cyclin E1(14-475) (Homo sapiens, UniProt P24941). The experiment can be described thus: Caliper LabChip EZ Reader mobility shift assay, inhibition of CDK2/Cyclin E1 activity. In kind it is biochemical. Conditions: class symbols A-D. As to the method:
Inhibition of CDK2/Cyclin E1 activity in the presence of compounds of the present disclosure was evaluated using a Caliper LabChip® EZ Reader mobility shift assay. In the assay, activated CDK2/Cyclin E1 catalyzes the phosphorylation of a fluorescently tagged peptide 5-FAM-QSPKKG-CONH2 (PerkinElmer, FL Peptide 18) which induces a difference in capillary electrophoresis mobility. The peptide substrate and product were measured, and the conversion ratio was used to determine the inhibition (as % activity and IC50 values) of CDK2/Cyclin E1. Reactions contained 50 mM HEPES pH 7.5, 10 mM MgCl2, 1 mM EDTA, 2 mM DTT, 0.01% Brij35, 0.5 mg/mL BSA, 0.1% DMSO, 2.5 nM CDK2/Cyclin E1(14-475), 100 μM ATP, and 1.5 μM fluorescent peptide substrate.
Dose titrations of inhibitors in 100% DMSO were combined with 3.25 nM CDK2/Cyclin E1(14-475) and 130 μM of ATP in reaction buffer. The mixtures were incubated for 30 minutes before the addition of fluorescent peptide substrate to initiate the kinase reaction. The final conditions were 2.5 nM CDK2/Cyclin E1(14-475), 100 μM ATP, and 1.5 μM fluorescent peptide. The reactions were stopped after 100 minutes with the addition of EDTA (6 mM final EDTA concentration). The stopped reactions were analyzed on a Caliper LabChip® EZ Reader II. The conversion ratios were normalized to yield % activity, plotted against compound concentration, and fit to a four-parameter equation to determine the IC50 for each compound.

The next experiment has as its system Kuramochi cells. The experiment can be described thus: BrdU cell proliferation assay (colorimetric ELISA), Kuramochi cells. The format is cell-based. Conditions: class symbols A-D. As to the method:
A BrdU assay was used as a measure of proliferation based on the DNA replication process of proliferating cells. BrdU, a pyrimidine analog, is added to the cell culture and incorporated into the DNA of proliferating cells. The presence of the BrdU analog was then measured through a colorimetric ELISA. After fixation and permeabilization of cells, peroxidase-conjugated antibody recognizing BrdU is added and allowed to incubate, followed by thorough washing to remove unbound antibody. In order to quantify the amount of bound antibody, peroxidase substrate is added and produces a color that can be measured at 450 nm.
On day −1, Kuramochi cells (Sekisui XenoTech JCRB0098) were seeded at 2,000 cells/well in columns 2-12 of a 96 well plate (Corning, CLS3596) in 150 uL media and allowed to adhere overnight at 37 degree with 5% CO2. In order to assess specificity of the compounds, Kuramochi RB^KO cells were also plated and treated, as RB^KO cells were not expected to show a proliferative response to CCNE/CDK specific inhibitors.
On day 0, the source plate was prepared by adding 10 mM compounds and performing 3-fold serial dilutions for a 4-point dose response of each compound. Using a multichannel pipette, 2 uL of the contents of the source plate were stamped into an intermediate plate with 500 uL of RPMI 1640 Media, GlutaMAX Supplement (Life Technologies, 61870127) in each well of a Nunc 96 DeepWell™ plate, non-treated 96 DeepWell plate, 2 mL/well, sterile, natural, 60/cs (Sigma Z717274) and mixed thoroughly. 50 uL from row A of this intermediate plate were added to rows A-H of one plate of previously seeded Kuramochi cells, and each subsequent row of the intermediate plate was added to a full plate of cells.
On day 4, the plates were developed using the BrdU ELISA Cell Proliferation Assay according to manufacturer's instructions (Roche, 11647229001). Briefly, BrdU was diluted 1:100 in Gibco®, Opti-MEM® and 20 μL/well was added, shaken for 10 minutes at 350 rpm, and then returned to the incubator for 1 hour. Following incubation, the medium was discarded, and the cells were fixed by adding 200 μL of Fix/Denature solution. The anti-BrdU peroxidase antibody was diluted 1:1000 in OptiMEM, added at 100 μL/well, and incubated while shaking (350 rpm) for one hour. Three washes with PBS were performed to remove any unbound antibody, followed by the addition of 100 μL of substrate solution to each well. […] was then added to halt the reaction, and plates were read out using an Envision spectrophotometer (Perkin Elmer) set to read 450 nm absorbance. Background absorbance values from empty wells were subtracted from all samples and then normalized to DMSO treated wells.
A general note: An ELISA detects its analyte on a solid surface through an enzyme-linked reagent.

Experimental findings from patent US12053459B2, “CDK2 inhibitors and methods of using the same” (Cedilla Therapeutics, Inc., priority 2021, dated 2024) are described below.

Molecules are shown by their SMILES. Some results are limits rather than exact numbers.

For orientation: IC50 means the point on the concentration scale where inhibition reaches its midpoint. For the compound `CNC(=O)[C@H](CCCc1ccccc1)NC(=O)C1CN(C(=O)c2coc(Cl)n2)CC2CN(C(=O)c3ccc(OC(C)C)c(OC)c3)CC21` (single isomer, unassigned) [I-233], the half-inhibitory concentration (IC50) at CDK2/Cyclin E1(14-475) and with Kuramochi cells was above 10 µM throughout.

On to `COc1cc(C(=O)N2CC3CN(C(=O)Cc4c[nH]c5cc(Cl)ccc45)CC(C(=O)N[C@@H](CCCc4cccc(O)c4)C(=O)NCCCCCN)C3C2)ccc1OC(C)C` (single isomer, unassigned) [I-257], for which the results for the half-inhibitory concentration (IC50) at CDK2/Cyclin E1(14-475) and with Kuramochi cells were 0.5 to 5 µM and above 10 µM, respectively.

As to `COc1cc(C(=O)N2CC3CN(C(=O)Cc4c[nH]c5cc(Cl)ccc45)CC(C(=O)N[C@@H](CCCc4cccc(O)c4)C(=O)NCCCCCN)C3C2)ccc1OC(C)C` (single isomer, unassigned) [I-258], the IC50 at CDK2/Cyclin E1(14-475) and in the experiment on Kuramochi cells was above 10 µM in each case.

Turning to `COc1cc(C(=O)N2CC3CN(C(=O)Cc4c[nH]c5cc(Cl)ccc45)CC(C(=O)N[C@H](C(=O)NCCCCCNC(=O)OC(C)(C)C)C(C)OCc4ccccc4)C3C2)ccc1OC(C)C` (single isomer, unassigned) [I-259], the IC50 at CDK2/Cyclin E1(14-475) is at most 0.5 µM; in the experiment on Kuramochi cells, 0.5 to 5 µM.

Consider `COc1cc(C(=O)N2CC3CN(C(=O)Cc4c[nH]c5cc(Cl)ccc45)CC(C(=O)N[C@H](C(=O)NCCCCCNC(=O)OC(C)(C)C)C(C)OCc4ccccc4)C3C2)ccc1OC(C)C` (single isomer, unassigned) [I-260], for which the IC50 on CDK2/Cyclin E1(14-475) was 0.5 to 5 µM; with Kuramochi cells, above 10 µM.

With `CNC(=O)[C@H](CCCc1ccccc1)NC(=O)C1CN(C(=O)Cc2c[nH]c3cc(Cl)ccc23)CC2CN(C(=O)c3ccc4oc(C)cc4c3)CC21` (stereo partly drawn) [I-3], the IC50 at CDK2/Cyclin E1(14-475) and in the experiment with Kuramochi cells was above 10 µM throughout.

As to `CNC(=O)[C@H](CCCc1ccccc1)NC(=O)C1CN(C(=O)Cc2c[nH]c3cc(Cl)ccc23)CC2CN(C(=O)c3ccc(OC)cc3)CC21` (stereo partly drawn) [I-5], the IC50 at CDK2/Cyclin E1(14-475) and in the experiment with Kuramochi cells was above 10 µM each time.

`CNC(=O)[C@H](CCCc1ccccc1)NC(=O)C1CN(C(=O)Cc2c[nH]c3cc(Cl)ccc23)CC2CN(C(=O)c3ccc(OC4CC4)cc3)CC21` (stereo partly drawn) [I-6]: the IC50 at CDK2/Cyclin E1(14-475) was 0.5 to 5 µM; in the experiment on Kuramochi cells, above 10 µM.

Consider `CNC(=O)[C@H](CCCc1ccccc1)NC(=O)C1CN(C(=O)Cc2c[nH]c3cc(Cl)ccc23)CC2CN(C(=O)c3ccc(OCC(C)C)cc3)CC21` (stereo partly drawn) [I-7], for which the IC50 at CDK2/Cyclin E1(14-475) is 0.5 to 5 µM; in the experiment with Kuramochi cells, 5 to 10 µM.

Regarding `CNC(=O)[C@H](CCCc1ccccc1)NC(=O)C1CN(C(=O)Cc2c[nH]c3cc(Cl)ccc23)CC2CN(C(=O)c3ccc4[nH]ncc4c3)CC21` (stereo partly drawn) [I-8], the IC50 at CDK2/Cyclin E1(14-475) and with Kuramochi cells was above 10 µM each time.

On to `CNC(=O)[C@H](CCCc1ccccc1)NC(=O)C1CN(C(=O)Cc2c[nH]c3cc(Cl)ccc23)CC2CN(C(=O)c3ccc(OCCC4CC4)c(OC)c3)CC21` (stereo partly drawn) [I-9], for which the IC50 at CDK2/Cyclin E1(14-475) was 5 to 10 µM; in the experiment with Kuramochi cells, above 10 µM.

Turning to `CNC(=O)[C@H](CCCc1ccccc1)NC(=O)C1CN(C(=O)Cc2c[nH]c3cc(Cl)ccc23)CC2CN(C(=O)c3cnc4ccccc4c3)CC21` (stereo partly drawn) [I-10], the IC50 at CDK2/Cyclin E1(14-475) and with Kuramochi cells was above 10 µM throughout.

As for `CNC(=O)[C@H](CCCc1ccccc1)NC(=O)C1CN(C(=O)Cc2c[nH]c3cc(Cl)ccc23)CC2CN(C(=O)c3cccc(-c4ccccc4)c3)CC21` (stereo partly drawn) [I-11], the IC50 at CDK2/Cyclin E1(14-475) and in the experiment with Kuramochi cells was above 10 µM each time.

With `CNC(=O)[C@H](CCCc1ccccc1)NC(=O)C1CN(C(=O)Cc2c[nH]c3cc(Cl)ccc23)CC2CN(C(=O)c3nc4ccccc4[nH]3)CC21` (stereo partly drawn) [I-12], the IC50 on CDK2/Cyclin E1(14-475) and in the experiment with Kuramochi cells was above 10 µM throughout.

For the compound `CNC(=O)[C@H](CCCc1ccccc1)NC(=O)C1CN(C(=O)Cc2c[nH]c3cc(Cl)ccc23)CC2CN(C(=O)c3ccc(-c4ccncc4)cc3)CC21` (stereo partly drawn) [I-14], the IC50 on CDK2/Cyclin E1(14-475) and with Kuramochi cells was above 10 µM each time.

`CNC(=O)[C@H](CCCc1ccccc1)NC(=O)C1CN(C(=O)Cc2c[nH]c3cc(Cl)ccc23)CC2CN(C(=O)c3ccc(C#N)cn3)CC21` (stereo partly drawn) [I-15]: the IC50 at CDK2/Cyclin E1(14-475) and with Kuramochi cells was above 10 µM each time.

Consider `CNC(=O)[C@H](CCCc1ccccc1)NC(=O)C1CN(C(=O)Cc2c[nH]c3cc(Cl)ccc23)CC2CN(C(=O)c3cnc(OC)cn3)CC21` (stereo partly drawn) [I-16], for which the IC50 on CDK2/Cyclin E1(14-475) and in the experiment with Kuramochi cells was above 10 µM throughout.

As for `CNC(=O)[C@H](CCCc1ccccc1)NC(=O)C1CN(C(=O)Cc2c[nH]c3cc(Cl)ccc23)CC2CN(C(=O)c3ccc4cnccc4c3)CC21` (stereo partly drawn) [I-18], the IC50 on CDK2/Cyclin E1(14-475) and in the experiment on Kuramochi cells was above 10 µM in each case.

As for `CNC(=O)[C@H](CCCc1ccccc1)NC(=O)C1CN(C(=O)Cc2c[nH]c3cc(Cl)ccc23)CC2CN(C(=O)c3cccc(CO)n3)CC21` (stereo partly drawn) [I-20], the IC50 at CDK2/Cyclin E1(14-475) and in the experiment on Kuramochi cells was above 10 µM in each case.

As for `CNC(=O)[C@H](CCCc1ccccc1)NC(=O)C1CN(C(=O)Cc2c[nH]c3cc(Cl)ccc23)CC2CN(C(=O)c3ccc(OC)nn3)CC21` (stereo partly drawn) [I-21], the concentration for half-maximal inhibition (IC50) at CDK2/Cyclin E1(14-475) and in the experiment with Kuramochi cells was above 10 µM in each case.

Consider `CNC(=O)[C@H](CCCc1ccccc1)NC(=O)C1CN(C(=O)Cc2c[nH]c3cc(Cl)ccc23)CC2CN(C(=O)c3ccc(OC(C)C)c(Cl)c3)CC21` (stereo partly drawn) [I-24], for which the IC50 on CDK2/Cyclin E1(14-475) and in the experiment with Kuramochi cells was above 10 µM throughout.

As for `CNC(=O)[C@H](CCCc1ccccc1)NC(=O)C1CN(C(=O)Cc2c[nH]c3cc(Cl)ccc23)CC2CN(C(=O)c3ccc(OC(F)(F)F)cc3)CC21` (stereo partly drawn) [I-25], the IC50 is 0.5 to 5 µM at CDK2/Cyclin E1(14-475) and above 10 µM in the experiment on Kuramochi cells.

Regarding `CNC(=O)[C@H](CCCc1ccccc1)NC(=O)C1CN(C(=O)Cc2c[nH]c3cc(Cl)ccc23)CC2CN(C(=O)c3cc(-c4ccccc4)nn3C)CC21` (stereo partly drawn) [I-26], the figures for the 50% inhibitory concentration (IC50) on CDK2/Cyclin E1(14-475) and in the experiment on Kuramochi cells were 5 to 10 µM and above 10 µM, respectively.

Take `CNC(=O)[C@H](CCCc1ccccc1)NC(=O)C1CN(C(=O)Cc2c[nH]c3cc(Cl)ccc23)CC2CN(C(=O)c3cn(-c4ccccc4)cn3)CC21` (stereo partly drawn) [I-27]: the IC50 on CDK2/Cyclin E1(14-475) and with Kuramochi cells was above 10 µM each time.

Take `CNC(=O)[C@H](CCCc1ccccc1)NC(=O)C1CN(C(=O)Cc2c[nH]c3cc(Cl)ccc23)CC2CN(C(=O)c3n[nH]c4ccccc34)CC21` (stereo partly drawn) [I-28]: the IC50 on CDK2/Cyclin E1(14-475) and in the experiment with Kuramochi cells was above 10 µM each time.

As to `CNC(=O)[C@H](CCCc1ccccc1)NC(=O)C1CN(C(=O)Cc2c[nH]c3cc(Cl)ccc23)CC2CN(C(=O)c3cc(C4CC4)[nH]n3)CC21` (stereo partly drawn) [I-30], the IC50 on CDK2/Cyclin E1(14-475) and in the experiment with Kuramochi cells was above 10 µM each time.

Regarding `CNC(=O)[C@H](CCCc1ccccc1)NC(=O)C1CN(C(=O)Cc2c[nH]c3cc(Cl)ccc23)CC2CN(C(=O)c3ccc(S(N)(=O)=O)c(OC)c3)CC21` (stereo partly drawn) [I-31], the IC50 at CDK2/Cyclin E1(14-475) and with Kuramochi cells was above 10 µM throughout.

As to `CNC(=O)[C@H](CCCc1ccccc1)NC(=O)C1CN(C(=O)Cc2c[nH]c3cc(Cl)ccc23)CC2CN(C(=O)c3ccc(OC)c(O)c3)CC21` (stereo partly drawn) [I-34], the values for the IC50 at CDK2/Cyclin E1(14-475) and in the experiment on Kuramochi cells were 5 to 10 µM and above 10 µM, respectively.

Turning to `CNC(=O)[C@H](CCCc1ccccc1)NC(=O)C1CN(C(=O)Cc2c[nH]c3cc(Cl)ccc23)CC2CN(C(=O)c3cc4ccccc4cn3)CC21` (stereo partly drawn) [I-37], the IC50 at CDK2/Cyclin E1(14-475) and with Kuramochi cells was above 10 µM each time.

For the compound `CNC(=O)[C@H](CCCc1ccccc1)NC(=O)C1CN(C(=O)Cc2c[nH]c3cc(Cl)ccc23)CC2CN(C(=O)c3cc4cc(C)ccc4[nH]3)CC21` (stereo partly drawn) [I-38], the 50% inhibitory concentration (IC50) on CDK2/Cyclin E1(14-475) and in the experiment on Kuramochi cells was above 10 µM throughout.
